Laboratory results from US8937089B2, “Synergistic mixtures of anthranilamide invertebrate pest control agents” (priority 2004, dated 2015).
Where two headings read alike, the source gives them in different places.

Experiments:
Assay type in all cases: in vivo
[1] = test system: silverleaf whitefly (Bemisia argentifolii); experiment: Test G: systemic control of silverleaf whitefly, drip irrigation of tomato plant in greenhouse
Protocol: For evaluating systemic control of silverleaf whitefly (Bemisia argentifolii), each test unit consisted of a 10-inch (25.4 cm) pot with sand, and a tomato plant (var. Tiny Tim) at the 5 to 10 true leaf stage. Oxamyl was in the liquid formulation as Vydate® L and compound 1 was in a wettable powder formulation with 50% active ingredient. Test compounds in approximately 200 mL of water per pot were applied by drip irrigation in the greenhouse. Whitefly activity was evaluated on a naturally occurring population by removing 5 old leaves with clearly visible nymphs. When there were no leaves with clearly visible nymphs, 5 old leaves were removed at random. Leaves were evaluated for dead and live nymphs. For all tests, analysis was conducted by using Fisher's LSD test for means separation, at p=0.05 (see. K. A. Gomez and A. A. Gomez, “Statistical Procedures for Agricultural Research”, 2nd edition, John Wiley & Sons, New York, 680 pp). Mean comparisons were made within each evaluation date only.

[2] = test system: beet armyworm (Spodoptera exigua); experiment: Test H: systemic control of beet armyworm, drip irrigation of tomato plant, leaf discs, % mortality and % feeding; conditions: mg ai/pot: Oxamyl 100, Compound 1 20, Oxamyl + Compound 1 100 + 20
Protocol: For evaluating systemic control of beet armyworm (Spodoptera exigua), each test unit consisted of a 10-inch (25.4 cm) pot filled with sand and containing a tomato plant (var. Tiny Tim) at the 5 to 10 true leaf stage. Oxamyl was in the liquid formulation as Vydate® L and compound 1 was in a wettable powder formulation with 50% active ingredient. Test compounds in approximately 200 mL of water per pot were applied by drip irrigation in the greenhouse. The plants were sampled at indicated date by cutting discs of the leaf material and placing each disc on a layer of agar gel in a 16-well, 1.5 oz. cup tray (B-150-S 0.028 Natural, Clear Pack Co., Franklin Park, Ill. 60131). One beet armyworm larva was added to each cell and the cells were covered. Trays were held in the growth chamber at 25° C., 16-hour light:8-hour dark, 60% relative humidity for 4 days. The percentage of mortality (abbreviated as % Morta.) and percentage of feeding (abbreviated as % feed), were visually assessed; the results are listed in Table 9. For all tests, analysis was conducted by using the LSD test. Mean comparisons were made within each evaluation date only.

[3] = test system: diamondback moth (Plutella xylostella); experiment: whole plant or invertebrate
Protocol: The test compounds were dissolved in water. […] Serial dilutions were made to obtain the appropriate concentrations. To obtain the desired mixture concentrations of each compound, twice the desired concentration of each of the two mixture partner compounds were mixed together in equal volumes.
The diluted solutions of the test compounds were sprayed to run-off on three-week-old tomato plants. The plants were placed on a rotating turntable sprayer (10 rpm). Test solutions were applied using a flat fan air-assisted nozzle (Spraying Systems 122440) at 10 psi (69 kPa). […] The leaves were cut into pieces, which were placed singly into 5.5 cm-by-3.5 cm cells of a sixteen-cell plastic tray. Each cell contained a 2.5-cm square of moistened chromatography paper to prevent desiccation. One insect was placed in each cell. There two trays per treatment. Trays were held in the growth chamber at 25° C., 16-hour light:8-hour dark, 60% relative humidity for 4 days.
(§1) For evaluating control of diamondback moth (Plutella xylostella), cabbage (var. Stonehead) plants were grown in Metromix potting soil in 10-cm pots in aluminum trays to test size (28 days, 3-4 full leaves) the plants were sprayed to the point of runoff using the turntable sprayer as described in Test I. Test compounds were formulated and sprayed on test plants as described for Test I. After drying for 2 hours, the treated leaves were excised and infested with one cabbage looper per cell and covered. The test units were placed on trays and put in a growth chamber at 25° C. and 60% relative humidity for 4 days.

[4] = test system: cabbage looper (Trichoplusia ni); experiment: Test J: foliar control of cabbage looper, sprayed cabbage leaves, % mortality and % feeding; conditions: for mortality at […]: Trichoplusia ni, foliar, read-out: % mortality (observed)
Protocol: For evaluating control of beet armyworm (Spodoptera exigua), methomyl was in the liquid formulation as Lannate® LV (29% of active ingredient). Compound 1 was in a water dispersible granules (WDG) formulation with 35% active ingredient. The test compounds were dissolved in water. Enough water was added to make 100 ppm of active ingredient for each compound. Serial dilutions were made to obtain the appropriate concentrations. To obtain the desired mixture concentrations of each compound, twice the desired concentration of each of the two mixture partner compounds were mixed together in equal volumes.
The diluted solutions of the test compounds were sprayed to run-off on three-week-old tomato plants. The plants were placed on a rotating turntable sprayer (10 rpm). Test solutions were applied using a flat fan air-assisted nozzle (Spraying Systems 122440) at 10 psi (69 kPa). After each treated plant had dried, leaves were excised from the treated plant. The leaves were cut into pieces, which were placed singly into 5.5 cm-by-3.5 cm cells of a sixteen-cell plastic tray. Each cell contained a 2.5-cm square of moistened chromatography paper to prevent desiccation. One insect was placed in each cell. There two trays per treatment. Trays were held in the growth chamber at 25° C., 16-hour light:8-hour dark, 60% relative humidity for 4 days.
as §1, with “evaluating foliar” for “evaluating”, “cabbage looper (Trichoplusia ni),” for “diamondback moth (Plutella xylostella),”, “leaves).” for “leaves) the plants were sprayed to the point of runoff using the turntable sprayer as described in Test I.”

[5] = Day 6, mg ai/pot: Oxamyl 100, Compound 1 20, Oxamyl + Compound 1 100 + 20
[6] = Day 13, mg ai/pot: Oxamyl 100, Compound 1 20, Oxamyl + Compound 1 100 + 20
[7] = Day 20, mg ai/pot: Oxamyl 100, Compound 1 20, Oxamyl + Compound 1 100 + 20
[8] = Day 13 - old growth (first of two heads so printed, c4)
[9] = Day 13 - old growth (first of two heads so printed, c5)
[10] = Day 13 - old growth (second of two heads so printed, c6)
[11] = Day 13 - old growth (second of two heads so printed, c7)

## CNC(=O)c1cc(Cl)cc(C)c1NC(=O)c1cc(Br)nn1-c1ncccc1Cl [Compound 1, 3-bromo-N-[4-chloro-2-methyl-6-[(methylamino)carbonyl]phenyl]-1-(3-chloro-2-pyridinyl)-1H-pyrazole-5-carboxamide]
[1]; [5]
  % Mortality: 44%
  Nymphs number: 316
[1]; [6]
  % Mortality: 99%
  Nymphs number: 194
[1]; [7]
  % Mortality: 100%
  Nymphs number: 300
[2]; Day 6 new & old
  % Morta.: 99%
  % feed: 0%
[2]; [8]
  % Morta.: 100%
[2]; [9]
  % feed: 0%
[2]; [10]
  % Morta.: 97%
[2]; [11]
  % feed: 0%
[2]; Day 20 - new growth
  % Morta.: 100%
  % feed: 0%
[2]; Day 20 - old growth
  % Morta.: 100%
  % feed: 0%
[3]; Compound 1 0.007 ppm
  % feeding: 10.0%
[3]; Compound 1 0.030 ppm
  % feeding: 0%
[3]; Plutella xylostella, in Brassica oleracea, Compound 1 0.007 ppm, read-out: % mortality (observed)
  mortality at 0.007 ppm: 13%
[3]; Plutella xylostella, in Brassica oleracea, Compound 1 0.013 ppm, read-out: % mortality (observed)
  mortality at […]: 34%
[3]; Plutella xylostella, in Brassica oleracea, Compound 1 0.030 ppm, read-out: % mortality (observed)
  mortality at 0.03 ppm: 78%
[3]; Plutella xylostella, in Brassica oleracea, rate 0.01 ppm, read-out: % mortality (obs)
  mortality at 0.01 ppm: 87%
[3]; Plutella xylostella, in Brassica oleracea, rate 0.02 ppm, read-out: % mortality (obs)
  mortality at 0.02 ppm: 77%
[3]; Plutella xylostella, in Brassica oleracea, rate 0.04 ppm, read-out: % mortality (obs)
  mortality at 0.04 ppm: 93%
[4]; Compound 1 0.032 ppm
  mortality at […]: 9%
[4]; Compound 1 0.057 ppm
  mortality at […]: 22%

## COC(=O)N(C(=O)N1CO[C@@]2(C(=O)OC)Cc3cc(Cl)ccc3C2=N1)c1ccc(OC(F)(F)F)cc1 [Indoxacarb]
[3]; Indoxacarb 0.147 ppm
  % feeding: 13.8%
  % mortality (observed): 33%
[3]; Indoxacarb 0.226 ppm
  % feeding: 3.5%
  % mortality (observed): 25%
[3]; Indoxacarb 0.340 ppm
  % feeding: 0.5%
  % mortality (observed): 47%
[3]; Indoxacarb 1 ppm
  % feeding: 0.1%
  % mortality (observed): 50%
[4]; Indoxacarb 0.146 ppm
  % feeding: 68%
  % mortality (observed): 31%

## CNC(=O)O/N=C(\SC)C(=O)N(C)C [Oxamyl]
[1]; [5]
  % Mortality: 6%
  Nymphs number: 380
[1]; [6]
  % Mortality: 34%
  Nymphs number: 506
[1]; [7]
  % Mortality: 28%
  Nymphs number: 404
[2]; Day 6 new & old
  % Morta.: 26%
  % feed: 49%
[2]; [8]
  % Morta.: 35%
[2]; [9]
  % feed: 43%
[2]; [10]
  % Morta.: 40%
[2]; [11]
  % feed: 40%
[2]; Day 20 - new growth
  % Morta.: 25%
  % feed: 92%
[2]; Day 20 - old growth
  % Morta.: 31%
  % feed: 65%
